Assay [1] concerns the target T1, GidA (Escherichia coli, UniProt P0A6U3).
T1 sequence (P0A6U3 1-629): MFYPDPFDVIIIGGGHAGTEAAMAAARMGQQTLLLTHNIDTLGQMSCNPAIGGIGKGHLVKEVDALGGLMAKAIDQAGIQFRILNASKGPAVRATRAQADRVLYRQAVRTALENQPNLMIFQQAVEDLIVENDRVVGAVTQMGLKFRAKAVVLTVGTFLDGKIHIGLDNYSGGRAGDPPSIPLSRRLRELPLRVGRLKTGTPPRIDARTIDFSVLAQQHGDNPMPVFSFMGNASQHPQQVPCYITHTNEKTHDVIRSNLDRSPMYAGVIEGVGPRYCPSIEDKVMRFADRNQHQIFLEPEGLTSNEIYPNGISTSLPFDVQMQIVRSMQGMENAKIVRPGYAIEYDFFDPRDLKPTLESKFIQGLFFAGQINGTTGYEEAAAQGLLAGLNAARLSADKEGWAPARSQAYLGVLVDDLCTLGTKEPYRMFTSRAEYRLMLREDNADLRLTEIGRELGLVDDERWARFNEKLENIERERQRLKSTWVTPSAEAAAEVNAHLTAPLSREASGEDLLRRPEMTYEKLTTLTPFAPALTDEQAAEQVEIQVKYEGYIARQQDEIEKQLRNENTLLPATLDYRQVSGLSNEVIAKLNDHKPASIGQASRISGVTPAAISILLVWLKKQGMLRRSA
The assay is described as follows: Affinity of GidA for FAD and NADH. It counts as binding.

The target of assay [2] is T1, GidA. Conditions: read-out: Kd (affinity of GidA for NADH); cited from earlier work.
Another assay deals with TrmFO. The settings on record: cited from earlier work.

Where two headings read alike, the source gives them in different places.

As a reminder, the Kd is a measure of binding affinity in units of concentration.

Take `Cc1cc2nc3c(=O)[nH]c(=O)nc-3n(C[C@H](O)[C@H](O)[C@H](O)COP(=O)(O)OP(=O)(O)OC[C@H]3O[C@@H](n4cnc5c(N)ncnc54)[C@H](O)[C@@H]3O)c2cc1C` [FAD]: at GidA [1], the Kd is ~3 µM.
With `NC(=O)C1=CN([C@@H]2O[C@H](COP(=O)(O)OP(=O)(O)OC[C@H]3O[C@@H](n4cnc5c(N)ncnc54)[C@H](O)[C@@H]3O)[C@@H](O)[C@H]2O)C=CC1` [NADH], the Kd at GidA [2] was ~11 µM.
On to (6S) THF, for which, in the assay with TrmFO, the “concentrations of THF that inhibit the methylene-THF-dependent activity of TrmFO” value is “higher than 2 µM”.
